According to patent US5491137A, “14α17α-(Propano-and 17^2 propeno) -estratrienes” (Schering Aktiengesellschaft, priority 1991, dated 1996):

Key:
Estrogen Receptor = Estrogen Receptor Test; assay type: binding; conditions: KF not defined in the patent
vaginal epithelium = test: Allen-Doisy test (vaginal smears in ovariectomized rats); assay type: in vivo; conditions: single administration day 1, smears days 3-5, threshold = amount at which 50% of animals reach stage 3 (estrus)
Experimental: In the Allen-Doisy test, an evaluation of vaginal smears in ovariectomized rats is performed on days 3-5 (d3-d5) after the one-time administration on day 1 (d1 ) of the test substance. The following cycle stages are distinguished:
1=diestrus (leukocytes and nucleated epithelial cells),
2=proestrus (nucleated epithelial cells),
3=estrus (denucleated horny plaques),
4=metestrus (denucleated horny plaques, leukocytes, epithelial cells).
After oral or subcutaneous administration, estrogenically active substances result in the proliferation of the vaginal epithelium and the hornification of superficial cell layers. Regarded as a threshold value, is the amount of an estrogen at which 50% of the animals reach stage 3. Further, estrogens cause an increase of the uterus weight.

Compound | Estrogen Receptor Test [KF] (Estrogen Receptor) | Allen-Doisy Test p.o. [ED50] (vaginal epithelium) | Allen-Doisy Test s.c. [ED50] (vaginal epithelium)
C[C@]12CC[C@@H]3c4ccc(O)cc4CC[C@H]3[C@@]13C=CC[C@]2(O)CC3 [14α,17α-(17^2 -Propeno)estra-1,3,5(10)-triene-3,17β-diol] | 0,4 | < 1 μg/Tier/Tag | 0,1-0,3 μg/Tier/Tag
C#C[C@]1(O)CC[C@H]2[C@@H]3CCc4cc(O)ccc4[C@H]3CC[C@@]21C [Ethinylestradiol] | 0.5 | 3.0 μg/Tier/Tag | 0.1-0.3 μg/Tier/Tag
